Patent US20140066370A1, “Polypeptide Conjugate” (priority 2009, published 2014)
Like-named read-outs stand apart in the source and are kept apart here. Marks after values point to notes of the source that are not given here.

Experiments:
[1] = system: diet-induced obese (DIO) male Sprague Dawley rats; test: DIO rat 4-week constant sc infusion: body weight; assay type: in vivo
Description: (§1) Various metabolic and PK parameters were evaluated.
(§2) Study Design. The Polypeptide Conjugates were tested relative to vehicle (50% DMSO in sterile water) and parent compounds alone and in combination (see Table 1).
(§3) Food intake and body weight were measured weekly. Body composition was assessed on day −1 and day 28 using an NMR instrument (Echo Medical Systems, Houston, Tex.). Adiposity (percent fat mass) was defined as the amount of fat mass relative to body weight (fat mass/body weight×100). Blood was collected via tail vein on day 14. On day 28 a sample of blood was drawn via the jugular vein and animals were euthanized by isoflurane overdose. Mini-pumps were immediately removed, animals were subjected to a brief NMR scan, and tissues were collected for future histological examination and preliminary toxicological assessment.
(§4) Statistical Analysis. Data were analyzed using one-way analysis of variance (ANOVA) with Newman-Keuls post-hoc comparisons. Significance was assumed for p<0.05. Graphs were generated using Prism 4 for Windows (Graphpad Software, San Diego, Calif.). All data points are expressed as mean±SEM.

[2] = system: diet-induced obese (DIO) male Sprague Dawley rats; test: DIO rat 4-week constant sc infusion: cumulative food intake; assay type: in vivo; details: highest dose tested (100 nmol/kg/d)
Description: as §1, §2, §3, §4

[3] = system: diet-induced obese (DIO) male Sprague Dawley rats; test: DIO rat 4-week sc infusion: body composition by NMR; assay type: in vivo
Description: as §1, §2, §3, §4
To correct for loss of body weight, reductions in fat and lean mass were adjusted for terminal body weight to calculate the change in adiposity (percent fat mass) and change in percent lean mass.

[4] = system: diet-induced obese (DIO) male Sprague Dawley rats; test: DIO rat 4-week sc infusion: hormone and metabolite analyses (HbA1c, insulin, lipids, glucose); assay type: in vivo; details: for Insulin 14 day / Insulin 28 day: fed state plasma; for Glucose / HDL cholesterol / Total cholesterol / Triglycerides: plasma after 28 days
Description: as §1, §2, §3, §4
(§5) Hormone and metabolite analyses. Plasma levels of study drug were measured at day 14 and termination by an ELISA. Whole blood percent hemoglobin A1c (% HbA1c), plasma triglyceride, total cholesterol, HDL cholesterol and plasma glucose at day 14 and at termination were measured using an Olympus bioanalyzer (Olympus America Diagnostics). Plasma insulin levels at day 14 and at termination were analyzed by an ELISA kit (Rat/Mouse Insulin ELISA, Linco Diagnostics).
Plasma parameters. The effects of the parent and Polypeptide Conjugate compounds on the following plasma parameters were determined: percent hemoglobin A1c (HbA1c), fed state plasma insulin, and concentration of the Polypeptide Conjugate in plasma, at 14 and 28 days.

[5] = DIO rats, sc infusion
Description: as §1, §2, §3, §5

NIH/Swiss female mice = test: basal glucose lowering assay (Oral Glucose Tolerance Test; OGTT); assay type: in vivo, mouse; details: IP at t=-5 min, 4-hour fasted mice, glucose gavage […], blood glucose at t=30 minutes
Description: Polypeptide Conjugates and parent compounds were analyzed in an in vivo basal glucose lowering assay. This assay reflects the conjugate polypeptide's ability to enhance insulin-mediated glucose clearance of orally administered glucose challenge (Oral Glucose Tolerance Test; OGTT). The OGTT is used to diagnose diabetes, although the simpler fasting plasma glucose test, which measures a subject's plasma glucose level after fasting for at least eight hours, is preferred. The following procedure was used: Test compound at various concentrations was injected intraperitoneally (IP) at t=−5 min to 4-hour fasted NIH/Swiss female mice. Glucose gavage (1.5 g/kg) was given at t=0. Sample was taken at t=30 minutes as tail blood glucose using a OneTouch® Ultra® (LifeScan, Inc., Milpitas, Calif.). Significant effects were identified by ANOVA (p<0.05), followed by Dunnett's post test using GraphPad Prism version 4.00 for Windows (GraphPad Software, San Diego Calif.).

rats = test: acute kaolin intake (pica, nausea) and chow intake in rats; assay type: in vivo, rat; details: 24 hr post injection
Description: To investigate possible nausea effects of the conjugate polypeptide, acute kaolin intake was measured in rats. Pica behavior (ingestion of dirt/clay) is a marker of nausea in rodents, typically associated with reduced food intake and weight loss. Pica can be assessed by measuring intake of the synthetic clay kaolin. […] Rats were acclimated to kaolin for 3 days as kaolin clay mixed in with regular chow. A 4 hr and a 24 hr baseline kaolin and chow intake were then measured. Subsequently, rats were fasted for approximately 16 hrs after which test compound was injected at the dose indicated below. At 24 hr post injection chow and kaolin consumption was measured.

male Sprague Dawley rats = test: delay of gastric emptying (acetaminophen appearance in plasma); assay type: in vivo, rat; details: for Percent Inhibition of Gastric Emptying 4 hr / Percent Inhibition of Gastric Emptying 6 hr / Percent Inhibition of Gastric Emptying 8 hr: 1 nmol/kg single sc injection
Description: Polypeptide Conjugates and parent compounds were analyzed for their ability to delay gastric emptying in rats. […] Rats then received an oral gavage of 33 mg acetaminophen/1 ml Orablend (Paddock Laboratories, Inc., MN USA) at t=3.5 hr, 5.5 hr or 7.5 hr post-injection. Blood was collected for measurement of acetaminophen at 4 hr, 6 hr or 8 hr after SC injection. Gastric emptying was assessed by the appearance of acetaminophen in plasma 30 min after oral gavage.

ob/ob mice = test: 28 days of exposure in ob/ob mice (obese and diabetic); assay type: in vivo, mouse
[6] = in vivo blood calcium lowering (amylin agonist property)
[7] = acute reduction of food intake; assay type: in vivo
[8] = human plasma, 5 hr incubation; detection limit 10%
[9] = human kidney brush border membrane matrices, 5 hr incubation; detection limit 10%
amylin receptor = molecular target: T1, amylin receptor (Homo sapiens, UniProt P30988); test: binding selectivity for amylin receptor against the CGRP receptor
T1 sequence (P30988 25-474): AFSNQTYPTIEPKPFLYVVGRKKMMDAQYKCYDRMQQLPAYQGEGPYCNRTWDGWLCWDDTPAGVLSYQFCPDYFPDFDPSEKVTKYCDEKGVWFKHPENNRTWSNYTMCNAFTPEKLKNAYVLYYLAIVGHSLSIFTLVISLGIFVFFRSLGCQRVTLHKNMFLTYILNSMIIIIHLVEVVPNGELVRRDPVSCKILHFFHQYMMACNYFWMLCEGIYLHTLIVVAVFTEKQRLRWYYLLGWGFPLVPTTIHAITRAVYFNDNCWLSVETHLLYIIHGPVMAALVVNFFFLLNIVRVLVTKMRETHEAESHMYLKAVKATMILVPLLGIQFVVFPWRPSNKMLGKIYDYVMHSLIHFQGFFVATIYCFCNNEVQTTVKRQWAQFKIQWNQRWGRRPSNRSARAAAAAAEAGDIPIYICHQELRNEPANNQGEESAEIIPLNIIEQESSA

calcitonin receptors = molecular target: T2, calcitonin receptors (Homo sapiens, UniProt P30988); test: binding selectivity for calcitonin receptors against the CGRP receptor
T2 sequence (P30988 25-474): T1 sequence (P30988 25-474)

Sequence: HGEGTFTSDLSKQLEEEAVRLFIEWLKQGGPSKEIISGGGKCNTATCVLGRLSQELHRLQ TYPRTNTGSNTY-NH2 [Cmpd 2A]
- potency at reducing body weight via sustained infusion relative to Cmpd 3A ([1]; DIO rats): several fold more potent
- four week vehicle-corrected weight loss ([1]; DIO rats, sc infusion, 100 nmol/kg/d): −31.5±2.7%
- Maximal weight loss ([1]; DIO rats, sc infusion, 100 nmol/kg/d group): −27.8±5.3%
- body weight over the 28 day treatment relative to vehicle ([1]; DIO rats, sc infusion, doses of Table 1 (conjugates 3, 10, 30 and 100 nmol/kg/d), p<0.05): dose-dependently reduced body weight significantly
- total food intake relative to single parent peptide administration [2]: significantly reduced
- Terminal Fat Mass ([3]; 3 nmol/kg/d, day 28): 71.4 ± 12.9^a,b g
- Terminal Lean Mass ([3]; 3 nmol/kg/d, day 28): 330.5 ± 7.3^a,b g
- Terminal Fat Mass ([3]; 10 nmol/kg/d, day 28): 35.8 ± 7.7^c,d g
- Terminal Lean Mass ([3]; 10 nmol/kg/d, day 28): 280.6 ± 22.6^b g
- Terminal Fat Mass ([3]; 30 nmol/kg/d, day 28): 32.4 ± 3.8^c,d g
- Terminal Lean Mass ([3]; 30 nmol/kg/d, day 28): 306.5 ± 13.2^a,b g
- Terminal Fat Mass ([3]; 100 nmol/kg/d, day 28): 12.7 ± 4.3^d g
- Terminal Lean Mass ([3]; 100 nmol/kg/d, day 28): 277.8 ± 17.8^b g
- change in adiposity (percent fat mass) ([3]; 100 nmol/kg/d, day 28): −12.2±1.3%
- adiposity compared to vehicle controls ([3]; all doses of Table 1, day 28): significantly reduced
- percent lean mass relative to vehicle controls ([3]; all doses, day 28): did not alter percent lean mass
- HbA1c 14 day ([4]; 3 nmol/kg/day): 4.9 ± 0.1%
- Insulin 14 day ([4]; 3 nmol/kg/day): 1.8 ± 0.6^b ng/mL
- HbA1c 28 day ([4]; 3 nmol/kg/day): 4.6 ± 0.1%
- Insulin 28 day ([4]; 3 nmol/kg/day): 2.2 ± 0.9 ng/mL
- Glucose ([4]; 3 nmol/kg/day): 132 ± 9 mg/dL
- HDL cholesterol ([4]; 3 nmol/kg/day): 33 ± 2 mg/dL
- Total cholesterol ([4]; 3 nmol/kg/day): 116 ± 8 mg/dL
- Triglycerides ([4]; 3 nmol/kg/day): 295 ± 75^b mg/dL
- HbA1c 14 day ([4]; 10 nmol/kg/day): 4.9 ± 0.1^b %
- Insulin 14 day ([4]; 10 nmol/kg/day): 1.5 ± 0.2^b ng/mL
- HbA1c 28 day ([4]; 10 nmol/kg/day): 4.6 ± 0.1%
- Insulin 28 day ([4]; 10 nmol/kg/day): 1.0 ± 0.2 ng/mL
- Glucose ([4]; 10 nmol/kg/day): 115 ± 6 mg/dL
- HDL cholesterol ([4]; 10 nmol/kg/day): 33 ± 5 mg/dL
- Total cholesterol ([4]; 10 nmol/kg/day): 115 ± 14 mg/dL
- Triglycerides ([4]; 10 nmol/kg/day): 146 ± 41^b mg/dL
- HbA1c 14 day ([4]; 30 nmol/kg/day): 4.8 ± 0.1%
- Insulin 14 day ([4]; 30 nmol/kg/day): 1.8 ± 0.5^b ng/mL
- HbA1c 28 day ([4]; 30 nmol/kg/day): 4.6 ± 0.1%
- Insulin 28 day ([4]; 30 nmol/kg/day): 0.8 ± 0.1 ng/mL
- Glucose ([4]; 30 nmol/kg/day): 111 ± 2 mg/dL
- HDL cholesterol ([4]; 30 nmol/kg/day): 32 ± 1 mg/dL
- Total cholesterol ([4]; 30 nmol/kg/day): 112 ± 4 mg/dL
- Triglycerides ([4]; 30 nmol/kg/day): 128 ± 25^b mg/dL
- HbA1c 14 day ([4]; 100 nmol/kg/day): 4.8 ± 0.1%
- Insulin 14 day ([4]; 100 nmol/kg/day): 1.2 ± 0.2^b ng/mL
- HbA1c 28 day ([4]; 100 nmol/kg/day): 4.5 ± 0.1%
- Insulin 28 day ([4]; 100 nmol/kg/day): 0.7 ± 0.1 ng/mL
- Glucose ([4]; 100 nmol/kg/day): 110 ± 4 mg/dL
- HDL cholesterol ([4]; 100 nmol/kg/day): 30 ± 1 mg/dL
- Total cholesterol ([4]; 100 nmol/kg/day): 107 ± 3 mg/dL
- Triglycerides ([4]; 100 nmol/kg/day): 139 ± 17^b mg/dL
- plasma drug level (Cmpd 2A or Cmpd 1A) 14 day ([5]; 3 nmol/kg/day): 15 ± 6^a ng/mL
- plasma drug level (Cmpd 2A or Cmpd 1A) 28 day ([5]; 3 nmol/kg/day): 65 ± 35^a ng/mL
- plasma drug level (Cmpd 2A or Cmpd 1A) 14 day ([5]; 10 nmol/kg/day): 48 ± 16^a ng/mL
- plasma drug level (Cmpd 2A or Cmpd 1A) 28 day ([5]; 10 nmol/kg/day): 345 ± 67^a ng/mL
- plasma drug level (Cmpd 2A or Cmpd 1A) 14 day ([5]; 30 nmol/kg/day): 65 ± 7^a ng/mL
- plasma drug level (Cmpd 2A or Cmpd 1A) 28 day ([5]; 30 nmol/kg/day): 540 ± 232^a ng/mL
- plasma drug level (Cmpd 2A or Cmpd 1A) 14 day ([5]; 100 nmol/kg/day): 284 ± 79^b ng/mL
- plasma drug level (Cmpd 2A or Cmpd 1A) 28 day ([5]; 100 nmol/kg/day): 1985 ± 717^b ng/mL
- ED50 in OGTT (NIH/Swiss female mice): 1.4 nmol/kg
- Inhibited food intake (rats; 30 nmol/kg/d): Yes ~68%
- Kaolin intake (rats; 30 nmol/kg/d): 0.3 g
- Percent Inhibition of Gastric Emptying 4 hr (male Sprague Dawley rats): 79
- Percent Inhibition of Gastric Emptying 6 hr (male Sprague Dawley rats): 49
- Percent Inhibition of Gastric Emptying 8 hr (male Sprague Dawley rats): 4
- HbA1c (ob/ob mice): HbA1c reduction
- body weight (ob/ob mice): body weight loss
- fasted blood glucose (ob/ob mice): fasted blood glucose-lowering
- blood calcium [6]: lower blood calcium
- potency at reducing food intake acutely compared with Cmpd 3A [7]: more potent
- metabolites detected [8]: No metabolites were detected
- metabolites detected [9]: No metabolites were detected

Sequence: HGEGTFTSDLSKQMEEEAVRLFIEWLKNGGGKCNTATCVLGRLSQELHRLQTYPRTNT GSNTY-NH2 [Cmpd 3A]
- weight loss ([1]; 100 nmol/kg/d of previous reference conjugates): ~20%
- ED50 in OGTT (NIH/Swiss female mice): 6 nmol/kg
- Inhibited food intake (rats; 15 nmol/kg/d): Yes ~20%
- Kaolin intake (rats; 15 nmol/kg/d): 0.5 g
- Percent Inhibition of Gastric Emptying 4 hr (male Sprague Dawley rats): 33
- Percent Inhibition of Gastric Emptying 6 hr (male Sprague Dawley rats): 0
- Percent Inhibition of Gastric Emptying 8 hr (male Sprague Dawley rats): 0
- inhibition of gastric emptying (male Sprague Dawley rats; at the time point and doses tested): did not significantly inhibit gastric emptying
- selectivity for amylin receptor against the CGRP receptor (amylin receptor): > 100 fold
- selectivity for calcitonin receptors against the CGRP receptor (calcitonin receptors): > 280 fold
